Results as given in PubChem BioAssay AID248 (DTP/NCI, 2004).
Several values for one entry are separate records, joined by “and”; a condition that tells them apart may be missing. Identical values can stand only once. Toxic doses and inconclusive results are not listed. Rule as the data show it: active = T/C of 150% or more; inactive = T/C below 125%.

Test system: L1210 leukemia ip in BDF1 mice, survival T/C
Test: NCI In Vivo Anticancer Drug Screen. Data for tumor model L1210 Leukemia (intraperitoneal) in B6D2F1 (BDF1) mice
Conditions: endpoint: mean survival time, higher = longer survival
How it was run: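 Transplantable tumor model; survival measured in treated vs vehicle control mice. Value = treated/control.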

[1] = dose: 100.0 mg/kg/injection, schedule: Q04DX003 (ip), vehicle: saline with Tween-80
[2] = dose: 200.0 mg/kg/injection, schedule: Q04DX003 (ip), vehicle: saline with Tween-80
[3] = dose: 400.0 mg/kg/injection, schedule: Q04DX003 (ip), vehicle: saline with Tween-80
[4] = dose: 100.0 mg/kg/injection, schedule: Q01DX009 (ip), vehicle: water
[5] = dose: 100.0 mg/kg/injection, schedule: Q04DX003 (ip), vehicle: water
[6] = dose: 200.0 mg/kg/injection, schedule: Q01DX009 (ip), vehicle: water
[7] = dose: 200.0 mg/kg/injection, schedule: Q04DX003 (ip), vehicle: water
[8] = dose: 400.0 mg/kg/injection, schedule: Q04DX003 (ip), vehicle: water
[9] = dose: 100.0 mg/kg/injection, schedule: Q01DX009 (ip), vehicle: saline with Tween-80
[10] = dose: 200.0 mg/kg/injection, schedule: Q01DX009 (ip), vehicle: saline with Tween-80
[11] = dose: 100.0 mg/kg/injection, schedule: Q01DX001 (ip), vehicle: Klucel (hydroxypropylcellulose) (HPC)
[12] = dose: 200.0 mg/kg/injection, schedule: Q01DX001 (ip), vehicle: Klucel (hydroxypropylcellulose) (HPC)
[13] = dose: 400.0 mg/kg/injection, schedule: Q01DX001 (ip), vehicle: Klucel (hydroxypropylcellulose) (HPC)
[14] = dose: 100.0 mg/kg/injection, schedule: Q04DX002 (ip), vehicle: Klucel (hydroxypropylcellulose) (HPC)
[15] = dose: 200.0 mg/kg/injection, schedule: Q04DX002 (ip), vehicle: Klucel (hydroxypropylcellulose) (HPC)
[16] = dose: 100.0 mg/kg/injection, schedule: Q04DX003 (ip), vehicle: Klucel (hydroxypropylcellulose) (HPC)
[17] = dose: 200.0 mg/kg/injection, schedule: Q04DX003 (ip), vehicle: Klucel (hydroxypropylcellulose) (HPC)
[18] = dose: 400.0 mg/kg/injection, schedule: Q04DX003 (ip), vehicle: Klucel (hydroxypropylcellulose) (HPC)
[19] = dose: 100.0 mg/kg/injection, schedule: Q01DX001 (ip), vehicle: other
[20] = dose: 200.0 mg/kg/injection, schedule: Q01DX001 (ip), vehicle: other
[21] = dose: 400.0 mg/kg/injection, schedule: Q01DX001 (ip), vehicle: other
[22] = dose: 100.0 mg/kg/injection, schedule: Q01DX001 (ip), vehicle: saline
[23] = dose: 200.0 mg/kg/injection, schedule: Q01DX001 (ip), vehicle: saline

Measured: T/C

N#CC(C#N)=C/C=C/C=C/c1c(Cl)cccc1Cl
inactive: [1] 92 % of control | [2] 103 % of control | [3] 105 % of control

CC(C)CCCC(C)C1CCC2C3CC=C4CC(O)CCC4(C)C3CCC12C (stereo not given) (tested in a mixture with another compound)
inactive: dose: 50.0 mg/kg/injection, schedule: Q01DX009 (ip), vehicle: water 94 % of control | dose: 100.0 mg/kg/injection, schedule: Q01DX001 (ip), vehicle: water 102 % of control and 108 % of control | [4] 102 % of control | [5] 90 % of control | dose: 200.0 mg/kg/injection, schedule: Q01DX001 (ip), vehicle: water 105 % of control | [6] 103 % of control | [7] 88 % of control | dose: 400.0 mg/kg/injection, schedule: Q01DX001 (ip), vehicle: water 105 % of control | [8] 87 % of control

COc1cc(C(C)=O)ccc1OCc1ccccc1
inactive: dose: 25.0 mg/kg/injection, schedule: Q01DX009 (ip), vehicle: saline with Tween-80 98 % of control and 107 % of control | dose: 50.0 mg/kg/injection, schedule: Q01DX009 (ip), vehicle: saline with Tween-80 96 % of control and 103 % of control | [9] 96 % of control and 101 % of control | [10] 93 % of control and 112 % of control

ClC(Cl)C(c1ccccc1)c1ccccc1
inactive: [11] 100 % of control | [12] 97 % of control | [13] 92 % of control

CCCCCCCCC/C(=N\N=C(N)N)c1ccccc1
inactive: dose: 15.0 mg/kg/injection, schedule: Q01DX Z (ip), vehicle: methylcellulose (MC) 94 % of control | dose: 30.0 mg/kg/injection, schedule: Q01DX Z (ip), vehicle: methylcellulose (MC) 96 % of control | dose: 50.0 mg/kg/injection, schedule: Q01DX Z (oral), vehicle: methylcellulose (MC) 89 % of control | dose: 60.0 mg/kg/injection, schedule: Q01DX Z (ip), vehicle: methylcellulose (MC) 90 % of control | dose: 60.0 mg/kg/injection, schedule: Q01DX Z (oral), vehicle: methylcellulose (MC) 102 % of control | dose: 120.0 mg/kg/injection, schedule: Q01DX Z (ip), vehicle: methylcellulose (MC) 108 % of control | dose: 120.0 mg/kg/injection, schedule: Q01DX Z (oral), vehicle: methylcellulose (MC) 98 % of control | dose: 240.0 mg/kg/injection, schedule: Q01DX Z (ip), vehicle: methylcellulose (MC) 96 % of control | dose: 400.0 mg/kg/injection, schedule: Q01DX Z (oral), vehicle: methylcellulose (MC) 89 % of control | dose: 480.0 mg/kg/injection, schedule: Q01DX Z (ip), vehicle: methylcellulose (MC) 113 % of control | dose: 1000.0 mg/kg/injection, schedule: Q01DX Z (ip), vehicle: methylcellulose (MC) 87 % of control | dose: 1500.0 mg/kg/injection, schedule: Q01DX Z (ip), vehicle: methylcellulose (MC) 100 % of control

COc1cc2c(cc1OC)-c1nc(C)sc1CC2
inactive: [1] 98 % of control | [2] 95 % of control | [3] 98 % of control

Cc1ccc(C)c(NC(=O)Oc2ccc(Cl)c(C)c2)c1
inactive: [14] 102 % of control | [15] 105 % of control | dose: 400.0 mg/kg/injection, schedule: Q04DX002 (ip), vehicle: Klucel (hydroxypropylcellulose) (HPC) 108 % of control

O=c1c2c([nH]c3ccccc13)CCCC2
inactive: [11] 97 % of control | [16] 97 % of control | [12] 88 % of control | [17] 94 % of control | [13] 93 % of control | [18] 101 % of control

CS(=O)(=O)NC(=O)NCCCl
inactive: [19] 95 % of control | [20] 95 % of control | [21] 98 % of control

O=C(O)CNC(=O)c1ccccc1C(=O)NCC(=O)OCc1ccccc1
inactive: dose: 50.0 mg/kg/injection, schedule: Q01DX001 (ip), vehicle: saline 94 % of control | [22] 91 % of control | [23] 91 % of control | dose: 400.0 mg/kg/injection, schedule: Q01DX001 (ip), vehicle: saline 97 % of control

CCCCCCOC(=O)C(N)Cc1ccc(N(CCCl)CCCl)cc1 (stereo not given)
inactive: dose: 2.8 mg/kg/injection, schedule: Q01DX009 (ip), vehicle: other 110 % of control | dose: 5.6 mg/kg/injection, schedule: Q01DX001 (ip), vehicle: other 110 % of control | dose: 5.6 mg/kg/injection, schedule: Q01DX009 (ip), vehicle: other 106 % of control | dose: 11.25 mg/kg/injection, schedule: Q01DX001 (ip), vehicle: other 110 % of control | dose: 11.25 mg/kg/injection, schedule: Q01DX009 (ip), vehicle: other 116 % of control | dose: 22.5 mg/kg/injection, schedule: Q01DX001 (ip), vehicle: other 121 % of control

O=C(O)c1cc(=O)c(O)c2c(O)c(O)c(O)cc2c1
inactive: [22] 103 % of control | [23] 91 % of control

O=[N+]([O-])CC(O)C(F)(F)C(F)(F)C(F)(F)F (stereo not given)
inactive: [16] 105 % of control | [17] 100 % of control | [18] 100 % of control

CO/C=C(\C)C(=O)NC(=O)Nc1ccccc1
inactive: [19] 93 % of control | [20] 98 % of control | [21] 96 % of control

CN(C(=O)c1ccccc1C(=O)c1n[nH]c2ccccc12)c1ccccc1
inactive: dose: 50.0 mg/kg/injection, schedule: Q04DX002 (ip), vehicle: Klucel (hydroxypropylcellulose) (HPC) 104 % of control | [14] 97 % of control | [15] 104 % of control

CC1C/C(=C\NC(N)=O)C(=O)O1 (stereo not given)
inactive: [4] 96 % of control | [5] 94 % of control | [6] 100 % of control | [7] 89 % of control | dose: 400.0 mg/kg/injection, schedule: Q01DX009 (ip), vehicle: water 102 % of control | [8] 96 % of control

C=CCN1C(=O)C(c2ccccc2)C2(CCN(C)CC2)C1=O (stereo not given)
inactive: dose: 25.0 mg/kg/injection, schedule: Q01DX001 (ip), vehicle: Klucel (hydroxypropylcellulose) (HPC) 108 % of control | dose: 50.0 mg/kg/injection, schedule: Q01DX001 (ip), vehicle: Klucel (hydroxypropylcellulose) (HPC) 108 % of control | [11] 98 % of control and 104 % of control

Cc1ccc(C(=O)/C=C/c2ccc(N(C)C)cc2)cc1
inactive: [9] 90 % of control | [10] 93 % of control | dose: 400.0 mg/kg/injection, schedule: Q01DX009 (ip), vehicle: saline with Tween-80 97 % of control

Cc1ccc(N2CCNCC2)cc1
inactive: dose: 6.25 mg/kg/injection, schedule: Q04DX003 (ip), vehicle: saline 91 % of control | dose: 12.5 mg/kg/injection, schedule: Q04DX003 (ip), vehicle: saline 93 % of control | dose: 25.0 mg/kg/injection, schedule: Q04DX003 (ip), vehicle: saline 103 % of control

C=CC1(CCC(C)C)C(=O)NC(=O)NC1=O
inactive: dose: 75.0 mg/kg/injection, schedule: Q01DX001 (ip), vehicle: saline 91 % of control | dose: 150.0 mg/kg/injection, schedule: Q01DX001 (ip), vehicle: saline 105 % of control | dose: 300.0 mg/kg/injection, schedule: Q01DX001 (ip), vehicle: saline 98 % of control

CC1CCCCN1Cc1ccccc1COC(=O)c1cccc(Br)c1 (stereo not given)
inactive: [11] 104 % of control | [12] 96 % of control

Clc1ccc(Nc2ncnc3ncn(Cc4ccccc4)c23)cc1
inactive: [19] 89 % of control | [20] 93 % of control | [21] 101 % of control
